# Measured values published in ChEMBL document CHEMBL3877282, “Synthesis and structure-activity studies of side chain analogues of the anti-tubercular agent, Q203” (Eur J Med Chem, 2017).
# Legend:
# [1] = tested on: Mycobacterium tuberculosis; test: Antimycobacterial activity against GFP-fused Mycobacterium tuberculosis H37Rv in liquid broth culture medium; format: functional
# [2] = AUC (0 to infinity) in mouse at 10 mg/kg, po; format: ADME, organism-based; parameters: dose 10 mg/kg, route oral, time infinity; conditions: in vivo
# [3] = Clearance in mouse at 2 mg/kg, iv; format: ADME, organism-based; conditions: in vivo
# [4] = Oral bioavailability in mouse at 10 mg/kg; format: ADME, organism-based; conditions: in vivo
# [5] = Cmax in mouse at 10 mg/kg, po; format: ADME, organism-based; parameters: dose 10 mg/kg, route oral; conditions: in vivo
# [6] = Half life in mouse at 10 mg/kg, po; format: ADME, organism-based; conditions: in vivo
# [7] = tested on: Mycobacterium tuberculosis; test: Antimycobacterial activity against GFP-fused Mycobacterium tuberculosis H37Rv infected in macrophages; format: functional
# [8] = Half life in mouse at 2 mg/kg, iv; format: ADME, organism-based; conditions: in vivo
# [9] = Tmax in mouse at 10 mg/kg, po; format: ADME, organism-based; conditions: in vivo
# [10] = Volume of distribution at steady state in mouse at 2 mg/kg, iv; format: ADME, organism-based; conditions: in vivo, read-out: Vdss
compound,measurement,setting,value
CCc1nc2ccc(Cl)cn2c1C(=O)NCc1ccc(N2CCC(Oc3ccc(F)cc3)CC2)cc1,MIC80,[1],0.01 µM
CCc1nc2cc(Cl)ccn2c1C(=O)NCc1ccc(N2CCC(Oc3ccc(OC(F)(F)F)cc3)CC2)cc1,MIC80,[1],0.021 µM
CCc1nc2ccc(Br)cn2c1C(=O)NCc1ccc(OCc2ccc(OC(F)(F)F)cc2)cc1,MIC80,[1],0.432 µM
CCc1nc2ccccn2c1C(=O)NCc1ccc(OCc2ccc(OC(F)(F)F)cc2)cc1,MIC80,[1],0.027 µM
CCc1nc2ccc(Cl)cn2c1C(=O)NCc1ccc(N2CCC(Oc3ccc(C(F)(F)F)cc3)CC2)cc1,AUC(0-inf),[2],48.9 µg·h/mL
same,clearance,[3],0.134 L/h/kg
same,bioavailability,[4],65.6%
same,Cmax,[5],4.1 µg/mL
same,half-life,[6],20 h
same,MIC80,[7],0.009 µM
same,half-life,[8],19.6 h
same,Tmax,[9],2 h
same,MIC80,[1],0.026 µM
same,Vd,[10],2.39 L/kg
CCc1nc2cc(Cl)ccn2c1C(=O)NCc1ccc(N2CCC(Cc3ccccc3)CC2)cc1,MIC80,[1],0.022 µM
CCc1nc2ccc(Cl)cn2c1C(=O)NCc1ccc(N2CCC(Oc3ccc(OC(F)(F)F)cc3)CC2)cc1,MIC80,[1],0.007 µM
CCc1nc2ccc(Cl)cn2c1C(=O)NCc1ccc(N2CCC(COc3ccc(OC(F)(F)F)cc3)CC2)cc1,MIC80,[1],0.037 µM
CCc1nc2cc(Cl)ccn2c1C(=O)NCc1ccc(NCc2ccc(OC(F)(F)F)cc2)cc1,MIC80,[1],0.25 µM
CCc1nc2cc(Cl)ccn2c1C(=O)NCc1ccc(N(C)c2ccc(OC(F)(F)F)cc2)cc1,MIC80,[7],0.023 µM
same,MIC80,[1],0.04 µM
CCc1nc2ccc(Cl)cn2c1C(=O)NCc1ccc(N2CCN(C(=O)Cc3ccc(F)cc3)CC2)cc1,MIC80,[1],0.373 µM
"CCc1nc2ccc(Cl)cn2c1C(=O)NCc1ccc(N2CCC(Oc3ccc(Cl)cc3)C2)cc1 (single isomer, unassigned; 40)",MIC80,[1],0.006 µM
NNC(=O)c1ccncc1 [ISONIAZID],MIC80,[7],0.2 µM
same,MIC80,[1],0.49 µM
CCc1nc2cc(Cl)ccn2c1C(=O)NCc1ccc(Oc2ccc(OC(F)(F)F)cc2)cc1,MIC80,[7],0.027 µM
same,MIC80,[1],0.064 µM
"CCc1nc2ccc(Cl)cn2c1C(=O)NCc1ccc(N2CCC(Oc3ccc(Cl)cc3)C2)cc1 (single isomer, unassigned; 41)",MIC80,[1],0.014 µM
CCc1nc2ccc(F)cn2c1C(=O)NCc1ccc(OCc2ccc(OC(F)(F)F)cc2)cc1,AUC(0-inf),[2],28.2 µg·h/mL
same,clearance,[3],0.286 L/h/kg
same,bioavailability,[4],80.5%
same,Cmax,[5],2.62 µg/mL
same,half-life,[6],11.4 h
same,MIC80,[7],0.028 µM
same,half-life,[8],11 h
same,Tmax,[9],1 h
same,MIC80,[1],0.084 µM
same,Vd,[10],3.85 L/kg
CCc1nc2cc(Cl)ccn2c1C(=O)NCc1ccc(OCc2ccc(OC(F)(F)F)cc2)cc1,AUC(0-inf),[2],11.5 µg·h/mL
same,clearance,[3],0.346 L/h/kg
same,bioavailability,[4],53.4%
same,Cmax,[5],1.64 µg/mL
same,half-life,[6],11.9 h
same,MIC80,[7],< 0.001 µM
same,half-life,[8],13.9 h
same,Tmax,[9],0.5 h
same,MIC80,[1],0.015 µM
same,Vd,[10],4.68 L/kg
CCc1nc2cc(Cl)ccn2c1C(=O)NCc1ccc(OCc2ccc(F)cc2)cc1,MIC80,[1],0.02 µM
CCc1nc2ccc(Cl)cn2c1C(=O)NCc1ccc(N2CCN(C(=O)c3ccc(F)cc3)CC2)cc1,MIC80,[1],0.534 µM
CCc1nc2cc(Cl)ccn2c1C(=O)NCc1ccc(Nc2ccc(OC(F)(F)F)cc2)cc1,MIC80,[1],0.839 µM
CCc1nc2ccc(Cl)cn2c1C(=O)NCc1ccc(OCc2ccc(OC(F)(F)F)cc2)cc1,MIC80,[1],0.015 µM
CCc1nc2ccc(Cl)cn2c1C(=O)NCc1ccc(N2CCC(Oc3ccc(Cl)cc3)CC2)cc1,AUC(0-inf),[2],30.3 µg·h/mL
same,clearance,[3],0.17 L/h/kg
same,bioavailability,[4],51.4%
same,Cmax,[5],3.54 µg/mL
same,half-life,[6],18.9 h
same,MIC80,[7],< 0.001 µM
same,half-life,[8],14.1 h
same,Tmax,[9],2 h
same,MIC80,[1],0.003 µM
same,Vd,[10],1.34 L/kg
CCc1nc2ccc(Cl)cn2c1C(=O)NCc1ccc(N2CCN(Cc3ccc(OC(F)(F)F)cc3)CC2)cc1,MIC80,[7],0.082 µM
same,MIC80,[1],0.015 µM
